Reference: patent publication US11191773B2, “Methods of treatment for bacterial infections” (President and Fellows of Harvard College, priority 2017, dated 2021)
Like-named read-outs stand apart in the source and are kept apart here. Bridge positions count the residues as written; N and C are the ends. Square brackets hold non-standard residues; d marks the D form. Peptide text beside a SMILES is read from it. * marks the point of attachment. Ileψ(thiazoline)Cys = CC[C@H](C)[C@H](N)C1=N[C@H](C(=O)*)CS1; dOrn = NCCC[C@@H](N)C(=O)O

How the values were obtained:
lptB1(G33C) = experiment: Disk diffusion assay; format: cell-based, E. coli
Procedure: (§1) Zones of inhibition were measured in disk diffusion assays of wild type, IptB1, and suppressors IptB1(R144H) and IptB1(G33C) pictured in FIG. 6B. Assays were conducted with 6-mm disks. Numbers outside of parentheses report the diameter of the zone of total growth inhibition (in mm), while numbers inside parenthesis report the diameter of the zone of partial growth inhibition.
(§2) Disk diffusion assays were performed as described in Sherman et al., Proc. Natl. Acad. Sci. USA 2014, 111, 4982-4987. Premade Sensi-Disc (BD-Beckton, Dickinson and Company) were used for bacitracin 10IU, erythromycin 15 μg, novobiocin 30 μg, and rifampin 5 μg.

lptB1 = experiment: Disk diffusion assay; format: cell-based, E. coli; settings: for Zone of inhibition, diameter of the zone of total growth inhibition: 6-mm disks, bacitracin 10IU, erythromycin 15 μg, novobiocin 30 μg, rifampin 5 μg, nalidixic acid 5 μg; for zone of inhibition at 15 µg/disc / zone of inhibition at 5 µg/disc: Escherichia coli
Procedure: as §1, §2

wild type = experiment: Disk diffusion assay; format: cell-based, E. coli; settings: 6-mm disks, bacitracin 10IU, erythromycin 15 μg, novobiocin 30 μg, rifampin 5 μg, nalidixic acid 5 μg
Procedure: as §1, §2

lptB1(R144H) = experiment: Disk diffusion assay; format: cell-based, E. coli; settings: for Zone of inhibition, diameter of the zone of total growth inhibition: 6-mm disks, bacitracin 10IU, erythromycin 15 μg, novobiocin 30 μg, rifampin 5 μg, nalidixic acid 5 μg
Procedure: as §1, §2

[1] = test system: E. coli strain ATCC 25922; experiment: Neutropenic mouse thigh infection efficacy; format: in vivo; settings: for Average log10 CFU/g of thigh: neutropenic CD-1 mice, 26 hours post infection
Procedure: Female CD-1 mice from Charles River Laboratories were allowed to acclimate for 5 days prior to start of study. Animals were housed four per cage with free access to food and water. Mice received two doses of cyclophosphamide on days −4 and −1 with 150 mg/kg and 100 mg/kg delivered IP, respectively. All procedures were performed to NeoSome IACUC policies and guidelines as well as OLAW standards.
E. coli strain ATCC 25922 was prepared for infection from an overnight plate culture. A portion of the plate was resuspended in sterile saline and adjusted to an OD of 0.15 at 625 nm. The adjusted bacterial suspension was further diluted to target an infecting inoculum of 1.5×10^5 CFU/mouse, the actual inoculum size for E. coli was 1.45×10^5 CFU/mouse. Plate counts of the inoculum was performed to confirm inoculum concentration.
Mice were inoculated with 100 μL of the prepared bacterial suspension via intramuscular injection into the right rear thigh.
Beginning at two hours post infection, mice were dosed with test agents subcutaneously at 10 mL/kg. A second dose of test agents was delivered at 6 hours post infection. For co-administered therapy, test agents were delivered separately at two different injection sites. Four animals were dosed per group. One group of four mice were euthanized at initiation of therapy (T=2 h) and CFUs determined. All remaining mice were euthanized at 26 hours post infection. At termination, thighs were aseptically excised, weighed, and homogenized to a uniform consistency in 2 mL of sterile saline. The homogenate was serially diluted and plated on bacterial growth media. The CFUs were enumerated after overnight incubation. The average and standard deviations for each group were determined.
Neutropenic mice infected with E. coli were treated with novobiocin, polymyxin B, or a combination of the two for the evaluation of efficacy is a thigh infection model.

Escherichia coli = experiment: Minimal inhibitory concentrations, checkerboard microdilution; format: cell-based; settings: grown at 37° C. for 24 h
Procedure: (§3) Checkerboard microdilution assays between polymyxin B and novobiocin were performed in wild-type strains (unless otherwise noted) grown at 37° C. for 24 h. Checkerboard data (FIG. 1A-1F) are representative of at least three biological replicates. The following strains were tested: A) Wild-type Escherichia coli, ATCC 25922; B) Wild-type Enterobacter cloacae; ATCC 13047) Wild-type Klebsiella pneumoniae, ATCC 700721; D) Wild-type Pseudomonas aeruginosa, ATCC 15692 (PAO1); E) Wild-type Acinetobacter baumannii, ATCC 19606; F) novobiocin-resistant Acinetobacter baumannii, ATCC 19606 gyrB(R150C).

[2] = test system: Acinetobacter baumannii Novo^R; experiment: as above; format: cell-based; settings: grown at 37° C. for 24 h
Procedure: as §3

Klebsiella pneumoniae = experiment: as above; format: cell-based; settings: grown at 37° C. for 24 h
Procedure: as §3

Pseudomonas aeruginosa = experiment: as above; format: cell-based; settings: grown at 37° C. for 24 h
Procedure: as §3

IptFG(ch) mutant = experiment: Rescue of growth of coupling helix mutant (plating and disk assays); format: cell-based, E. coli; settings: disks on LB plates, each disk 5 μg compound (FIG. 15)
Procedure: FIG. 8B is a series of pictures of bacterial overnight cultures grown in minimal medium. The cultures were serially diluted ten-fold and spotted onto LB agar plates with and without compounds.
FIG. 15 is a picture of bacterial lawns grown on plates in the presence of disks containing antibiotics. […] Strains were grown overnight in minimal media and then plated on LB plates. Each disk contained 5 μg compound.
The coupling helices in LptFG each contain a strictly-conserved glutamate, and changing both glutamates to alanine (IptFG(ch)) causes a lethal loss of function (FIG. 8B, LB panel). […] Because novobiocin also contacts R91 (FIG. 7C), we speculated that it might rescue growth of IptFG(ch) by masking the charge. […] We conclude that novobiocin suppresses Lpt defects in vivo by interacting with LptB at R91; therefore, novobiocin interacts with LptB in cells in a similar manner to that observed in the crystal structure.
as §2
Efficiency of plating assays were performed on indicated media using the method described in Butler et al., J. Bacteriol. 2013, 195, 4639-4649.

LptB = biological target: T1, LptB (Escherichia coli, UniProt P0A9V1); experiment: Fbn-LptB binding assay (19F NMR linewidth); parameters: species or system E. coli
T1 construct: LptB-His (full-length LptB with a C-terminal His8 tag); His8 (C); made in house; host or cells: E. coli KRX (Promega)
T1 sequence (P0A9V1 whole entry): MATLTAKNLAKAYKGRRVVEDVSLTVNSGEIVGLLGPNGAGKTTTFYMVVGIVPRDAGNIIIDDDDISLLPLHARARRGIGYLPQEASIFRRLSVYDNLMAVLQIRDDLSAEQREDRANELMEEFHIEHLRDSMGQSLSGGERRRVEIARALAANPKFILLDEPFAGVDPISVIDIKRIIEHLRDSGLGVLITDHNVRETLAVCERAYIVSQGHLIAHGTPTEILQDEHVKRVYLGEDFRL
Procedure: FIG. 12 is a graph showing the ^19F NMR linewidth of fluorobiocin (fbn) plotted vs. log[LptB]. Data were analyzed with GraphPad Prism 7 software using a nonlinear fit, log(agonist) vs. response with an R^2=0.9909.
We soaked novobiocin into LptB-ADP crystals and obtained a 2.0-Å structure of a co-complex (FIG. 7A, FIG. 11). ADP is still present in the co-complex, and novobiocin binds adjacent to the groove in LptB that accommodates the coupling helices from LptFG (FIG. 7B, FIG. 11). Coupling helices are a conserved motif in ABC systems that connect the transmembrane domains (here, LptFG) to the nucleotide-binding domains (here, LptB). […] This residue is invariant in LptB, and non-conservative substitutions at this position are lethal because they disrupt proper formation of the LptB2FG complex. Novobiocin thus binds a critical position at the LptBLptFG interface. To estimate the affinity of novobiocin for LptB, we synthesized an otherwise identical analogue in which a phenolic hydroxyl was substituted with a 19F-label (fluorobiocin, FIG. 8A).
5 mL of the buffered Fbn ligand solution was prepared by mixing 200 μL of 25X TBS pH 8.0, 125 μL 200 mM ADP pH 7.0, 125 μL 200 mM MgCl2, 4.43 μL of 56.5 mM Fbn, 4.55 mL of D20. Final [Tris-Cl]=50 mM, [NaCl]=150 mM, [ADP]=5 mM, [MgCl2]=5 mM, [Fbn]=50 μM. […]

[3] = 6-mm disks, bacitracin 10IU, erythromycin 15 μg, novobiocin 30 μg, rifampin 5 μg, nalidixic acid 5 μg
[4] = PMB 0.03 mg/kg (total 0.06) BID/SC
[5] = PMB 0.1 mg/kg (total 0.2) BID/SC
[6] = PMB 0.3 mg/kg (total 0.6) BID/SC
[7] = Escherichia coli, read-out: Zone of inhibition, diameter of the zone of partial growth inhibition (in parentheses)
[8] = read-out: Zone of inhibition, diameter of the zone of partial growth inhibition (in parentheses)
[9] = read-out: Zone of inhibition, diameter of the zone of total growth inhibition
[10] = Escherichia coli, read-out: Zone of inhibition, diameter of the zone of total growth inhibition

With `CC[C@H](C)[C@H](N)C1=N[C@H](C(=O)N[C@@H](CC(C)C)C(=O)N[C@H](CCC(=O)O)C(=O)N[C@H](C(=O)N[C@H]2CCCCNC(=O)[C@H](CC(N)=O)NC(=O)[C@@H](CC(=O)O)NC(=O)[C@H](Cc3cnc[nH]3)NC(=O)[C@@H](Cc3ccccc3)NC(=O)[C@H]([C@@H](C)CC)NC(=O)[C@@H](CCCN)NC2=O)[C@@H](C)CC)CS1` [Bacitracin] ({Ileψ(thiazoline)Cys}-L[dE]IK[dOrn]I[dF]H[dD]N; lactam 4-C) the “Zone of inhibition, diameter of the zone of partial growth inhibition (in parentheses)” value (lptB1(G33C); [3]) was “(8) mm”, the “Zone of inhibition, diameter of the zone of total growth inhibition” value (“Zone … of total growth inhibition” below) (lptB1) was 17 mm and the “Zone … of total growth inhibition” value (wild type) was <6 mm. The “Zone … of total growth inhibition” value (lptB1(R144H)) was 17 mm.

polymyxin B was tested, and the “change in log10 CFU/g of thigh from 2 hour control” value [1, 4] was 3.91 log10 CFU/g of thigh, the “change in log10 CFU/g of thigh from 26 hour controls” value [1, 4] was −0.18 log10 CFU/g of thigh and the “change in log10 CFU/g of thigh from 2 hour control” value [1, 5] was 3.95 log10 CFU/g of thigh. The “change in log10 CFU/g of thigh from 26 hour controls” value [1, 5] was −0.13 log10 CFU/g of thigh, the “change in log10 CFU/g of thigh from 2 hour control” value [1, 6] was 3.38 log10 CFU/g of thigh and the “change in log10 CFU/g of thigh from 26 hour controls” value [1, 6] was −0.70 log10 CFU/g of thigh. The “change in log10 CFU/g of thigh from 2 hour control” value ([1]; PMB 1 mg/kg (total 2) BID/SC) was 0.49 log10 CFU/g of thigh, the “change in log10 CFU/g of thigh from 26 hour controls” value ([1]; PMB 1 mg/kg (total 2) BID/SC) was −3.60 log10 CFU/g of thigh and the “reductions in CFUs from the 26 hour infection controls” value ([1]; Polymyxin B as a single agent at 0.2 mg/kg) was 0.70 log10 CFU/gram of thigh. For the same molecule, the “reductions in CFUs from the 26 hour infection controls” value ([1]; Polymyxin B as a single agent at 1 mg/kg) was 3.60 log10 CFU/gram of thigh, the “Average log10 CFU/g of thigh” value [1, 4] was 9.44 log10 CFU/g of thigh and the “Average log10 CFU/g of thigh” value [1, 5] was 9.49 log10 CFU/g of thigh. For the same molecule, the “Average log10 CFU/g of thigh” value [1, 6] was 8.92 log10 CFU/g of thigh, the “Average log10 CFU/g of thigh” value ([1]; PMB 1 mg/kg (total 2) BID/SC) was 6.02 log10 CFU/g of thigh and the MIC (Escherichia coli) was 0.11 mg/L. For the same molecule, the MIC [2] was 0.28 mg/L, the MIC (Klebsiella pneumoniae) was 1 mg/L and the MIC (Pseudomonas aeruginosa) was >1 mg/L.

With `CC[C@H]1OC(=O)[C@H](C)[C@@H](O[C@H]2C[C@@](C)(OC)[C@@H](O)[C@H](C)O2)[C@H](C)[C@@H](O[C@@H]2O[C@H](C)C[C@H](N(C)C)[C@H]2O)[C@](C)(O)C[C@@H](C)C(=O)[C@H](C)[C@@H](O)[C@]1(C)O` [Erythromycin] the zone of inhibition at 15 µg/disc (lptB1(G33C); [7]) was 11 mm, the zone of inhibition at 15 µg/disc (lptB1; [8]) was 21 mm and the zone of inhibition at 15 µg/disc (lptB1; [9]) was 16 mm. It also gave a zone of inhibition at 15 µg/disc (wild type; [7]) of 8 mm and a zone of inhibition at 15 µg/disc (lptB1(R144H); [7]) of 16 mm.

`CCn1cc(C(=O)O)c(=O)c2ccc(C)nc21` [Nalidixic acid] was tested, and the zone of inhibition at 5 µg/disc (lptB1(G33C); [7]) was 14 mm, the zone of inhibition at 5 µg/disc (lptB1(G33C); [10]) was 12 mm and the zone of inhibition at 5 µg/disc (lptB1; [8]) was 21 mm. For the same molecule, the zone of inhibition at 5 µg/disc (lptB1; [9]) was 18 mm, the zone of inhibition at 5 µg/disc (wild type; [7]) was 14 mm and the zone of inhibition at 5 µg/disc (wild type; [10]) was 11 mm. The zone of inhibition at 5 µg/disc (lptB1(R144H); [7]) was 20 mm, the zone of inhibition at 5 µg/disc (lptB1(R144H); [10]) was 17 mm and the “suppression of lethality of IptFG(ch)” value (IptFG(ch) mutant) was “but not nalidixic acid (NA), suppressed the lethality of IptFG(ch)”.

`CO[C@H]1/C=C/O[C@@]2(C)Oc3c(C)c(O)c4c(O)c(c(/C=N/N5CCN(C)CC5)c(O)c4c3C2=O)NC(=O)/C(C)=C\C=C\[C@H](C)[C@H](O)[C@@H](C)[C@@H](O)[C@@H](C)[C@H](OC(C)=O)[C@@H]1C` [Rifampicin] was tested, and the “Zone … of total growth inhibition” value (lptB1(G33C); [3]) was 9 mm, the “Zone … of total growth inhibition” value (lptB1) was 17 mm and the “Zone of inhibition, diameter of the zone of partial growth inhibition (in parentheses)” value (wild type) was 9 mm. For the same molecule, the “Zone … of total growth inhibition” value (wild type) was 8 mm and the “Zone … of total growth inhibition” value (lptB1(R144H)) was 24 mm.

With `CO[C@@H]1[C@@H](OC(N)=O)[C@@H](O)[C@H](Oc2ccc3c(O)c(NC(=O)c4ccc(F)c(CC=C(C)C)c4)c(=O)oc3c2C)OC1(C)C` [fluorobiocin, (3R,4S,5R,6R)-6-((3-(4-fluoro-3-(3-methylbut-2-en-1-yl)benzamido)-4-hydroxy-8-methyl-2-oxo-2H-chromen-7-yl)oxy)-5-hydroxy-3-methoxy-2,2-dimethyltetrahydro-2H-pyran-4-yl carbamate] the Kd (LptB; 19F NMR linewidth vs. log[LptB], nonlinear fit, [Fbn]=50 μM, 5 mM ADP) was 18 µM and the “affinity for LptB in words” value (LptB; Solution NMR binding experiments) was “low micromolar binder”.
